In data set [1] the test system is LS180. In words: Activation of PXR/LXR in human LS180 cells assessed as induction of P-gp measured as intracellular accumulation of Rhodamine-123 at 5 uM preincubated for 48 hrs followed by 40 mins incubation with HANKS buffer and subsequent addition of Rhodamine-123 measured after 90 mins by fluorescence analysis relative to control. The format is cell-based.
Data set [2] is described as follows: Cytotoxicity against human LS180 cells assessed as effect on cell viability at 50 uM measured after 24 hrs by MTT assay relative to control. The format is toxicity, cell-based. As to conditions: read-out: Activity.
The nature of data set [3]: Cytotoxicity against human SH-SY5Y cells assessed as effect on cell viability at 50 uM measured after 24 hrs by MTT assay relative to control. The format is toxicity, cell-based. As to conditions: read-out: Activity.
Data set [4] has as its system LS180. In words: Activation of PXR/LXR in human LS180 cells assessed as induction of P-gp by measuring decrease in intracellular accumulation of Rhodamine-123 at 0.3 uM preincubated for 48 hrs followed by 40 mins incubation with HANKS buffer and subsequent addition of Rhodamine-123 measured after 90 mins by fluorescence assay. The class given is cell-based.
A short description of data set [5]: Therapeutic index, ratio of effective concentration for cytotoxicity in human SH-SY5Y cells to effective concentration for activation of PXR/LXR in human LS180 cells assessed as induction of P-gp. Conditions: read-out: TI. The format is cell-based.
The nature of data set [6]: Cytotoxicity against human LS180 cells assessed as effect on cell viability measured after 24 hrs by MTT assay. The class given is toxicity, cell-based.
Data set [7] in a line: Cytotoxicity against human SH-SY5Y cells assessed as effect on cell viability measured after 24 hrs by MTT assay. The format is toxicity, cell-based.
The subject of data set [8] is LS180. The data set is described as follows: Activation of PXR/LXR in human LS180 cells assessed as induction of P-gp at 5 uM measured after 24 hrs by Western blot analysis. The format is cell-based.
The nature of data set [9]: Neuroprotective activity in human SH-SY5Y cells assessed as decrease in amyloid beta-induced cytotoxicity measured as cell viability at 5 uM pretreated for 30 mins prior amyloid beta-challenge measured after 48 hrs by MTT assay (reference value: 68%). The class given is functional.
The nature of data set [10]: Therapeutic index, ratio of effective concentration for cytotoxicity in human LS180 cells to effective concentration for activation of PXR/LXR in human LS180 cells assessed as induction of P-gp. The format is cell-based. Conditions: read-out: TI.
Data set [11] concerns LS180. In words: Activation of PXR/LXR in human LS180 cells assessed as induction of P-gp by measuring intracellular accumulation of Rhodamine-123 at 10 uM preincubated for 48 hrs followed by 40 mins incubation with HANKS buffer and subsequent addition of Rhodamine-123 measured after 90 mins by fluorescence assay relative to control. The format is cell-based.

Molecules are shown by their SMILES. Activity calls are given as the source filed them. The calls are words filed in the database; no cut-off is given here.

With `CC(=O)c1ccc(N(Cc2cn(-c3ccccc3)nn2)S(=O)(=O)c2ccccc2)cc1`, the Activity in data set [1] stood at 53.4%. Also, the values for the viability at 24 h, 50 µM in data set [2] and in data set [3] were 86.3% and 114%, respectively. For the same compound, the result in data set [4] was Active. For the same compound, the selectivity ratio in [5] worked out at 10.

Consider `CC(=O)c1ccc(N(Cc2cn(-c3ccc(C(F)(F)F)cc3)nn2)S(=O)(=O)c2ccccc2)cc1`, for which the Activity came to 48.4% in data set [1] and 79% in data set [9]. Also, the viability at 24 h, 50 µM in [2] was 76.7%; in [3], 108%. In addition, the concentration for half-maximal inhibition (IC50) at 24 h in data set [6] and in data set [7] was > 50 µM in each case. The result in data set [4] and in data set [8] was Active. For the same compound, the selectivity ratio in [10] and in data set [5] was > 166 in each case.

As for `O=S(=O)(c1ccccc1)N(Cc1cn(-c2ccccc2F)nn1)c1ccc(C(O)(C(F)(F)F)C(F)(F)F)cc1`, the Activity in data set [1] is 61.8%. Further, the results for the viability at 24 h, 50 µM in [2] and in data set [3] were 65.1% and 129%, respectively. Further, the result in [4] was Active. Besides, the selectivity ratio in [10] and in [5] was 10 in each case.

With `O=S(=O)(c1ccccc1)N(Cc1cn(-c2c(F)cccc2F)nn1)c1ccc(C(O)(C(F)(F)F)C(F)(F)F)cc1`, the values for the Activity in data set [1] and in [9] were 65.1% and 75%, respectively. Moreover, the viability at 24 h, 50 µM in data set [2] amounted to 74.5%; in data set [3], 125%. Besides, in data set [4], the outcome was Active. Moreover, the selectivity ratio in [10] and in [5] was 10 throughout.

As for `O=S(=O)(c1ccccc1)N(CC(F)(F)F)c1ccc(C(O)(C(F)(F)F)C(F)(F)F)cc1` [T091317], in data set [1], the Activity came out at 64.2%. The viability at 24 h, 50 µM in data set [2] came to 73.3%; in data set [3], 94.8%. The concentration for half-maximal inhibition (IC50) at 24 h in data set [6] and in data set [7] was > 50 µM in each case. In addition, the result in data set [4] and in data set [8] was Active. Also, the selectivity ratio in [10] and in data set [5] was 10 each time.

As to `CO[C@H]1/C=C/O[C@@]2(C)Oc3c(C)c(O)c4c(O)c(c(/C=N/N5CCN(C)CC5)c(O)c4c3C2=O)NC(=O)/C(C)=C\C=C\[C@H](C)[C@H](O)[C@@H](C)[C@@H](O)[C@@H](C)[C@H](OC(C)=O)[C@@H]1C`, in data set [11], the Activity is 66.9%.

Consider `CC(=O)c1ccc(N(Cc2cn(-c3ccccc3C(F)(F)F)nn2)S(=O)(=O)c2ccccc2)cc1`, for which, in data set [1], the Activity was 48.5%. In addition, the viability at 24 h, 50 µM in data set [2] was 112%; in data set [3], 83.9%. Also, the result in data set [8] was Active. For the same compound, the selectivity ratio in data set [10] and in [5] was 10 each time.

`C#CCN(c1ccc(C(O)(C(F)(F)F)C(F)(F)F)cc1)S(=O)(=O)c1ccccc1`: in data set [1], the Activity was 60.8%. For the same compound, the viability at 24 h, 50 µM in [2] turned out to be 89.5%; in data set [3], 112%. Besides, the selectivity ratio in [10] and in [5] was 10 in each case.

As for `O=S(=O)(c1ccccc1)N(Cc1cn(-c2ccccc2)nn1)c1ccc(C(O)(C(F)(F)F)C(F)(F)F)cc1`, the Activity in data set [1] worked out at 87.9%. Also, the figures for the viability at 24 h, 50 µM in data set [2] and in [3] were 46.4% and 39.5%, respectively. Further, the selectivity ratio in [10] and in data set [5] was 10 in each case.

Source of the values: ChEMBL document CHEMBL3865833, “Functional induction of P-glycoprotein efflux pump by phenyl benzenesulfonamides: Synthesis and biological evaluation of T0901317 analogs” (Eur J Med Chem, 2016).
